Entries after “also recorded” stand apart in the source; their conditions may differ.
Assays:
ERRs (ERRα, ERRβ, ERRγ) = details: literature (Tremblay et al, 2001; Ariazi and Jordan, 2006); cited from earlier work
[1] = test system: HIF-dependent reporter (HRE-Luc); experiment: HIF-dependent luciferase reporter (HRE-Luc) assay in SKBR3 cells; format: cell-based, human; details: DP (100 uM), DES (50 uM) or 4HT (10 uM)
Description: All human cancer cells were maintained in the following basal media (Invitrogen) supplemented with 10% fetal bovine serum: breast cancer cell line MDA-MB-435 in DMEM/F12, melanoma WM266 cells in McCoy's 5A, breast cancer SKBr3 in DMEM. […] The antibiotic G418 was added in the medium (800 ug/mL) for selection of stable dnERR transfectants. Anaerobic culture was achieved using GasPak Pouch System (BD Biosciences). The HIF-dependent reporter HRE-Luc was generated by inserting the two copies of synthetic HRE from PGK1 into a pGL3 luciferase vector. (Promega) Epo-Luc and PGK1-Luc were created by cloning the PCR-amplified HIF-dependent enhancer and promoter regions of Epo and PGK1, respectively, Full-length EST clones encoding ERR-α, -β, -γ, HIF-1α, -2α, -1β were used for in vitro translation (Promega TNT kit), production of GST fusions by cloning into the pGEX vector, and mammalian expression by cloning into modified pcDNA3 vectors with Flag or HA epitope tags. ERR Deletion mutants were generated by PCR. dnERR was constructed by PCR amplification of ERRβ DBD and Engrailed repression domain, followed by a three-way ligation into pcDNA3. Anti-Flag, -HA, -ERRα, and -HIF1α antibodies were obtained from Sigma, Covance, Upstate, and BD Biosciences and Novus, respectively.

ERRγ-HIF association = ERRγ-HIF association (Homo sapiens, UniProt P62508); details: DES (50 μM) or 4HT (10 μM); GST pulldown
Description: In vitro translated HIF proteins were mixed with GST or GST-ERR fusions and assayed for binding.
All procedures followed standard molecular biology techniques. […] For GST binding and IP, we used the following binding buffer (20 mM Tris, pH7.5, 150 mM NaCl, 0.5% NP-40, and protease inhibitor cocktail (Roche)). […] In later experiments, we added proteasome inhibitor MG132 (10 uM) into the buffer.
We examined whether mammalian HIF and ERR proteins interact with each other in vitro by the common glutathione S-transferase (GST) pulldown assay. We fused full-length cDNAs of ERRα, β, and γ to GST and generated fusion proteins in bacteria. We assayed them for binding to in vitro translated full-length HIF1α, HIF2α, and HIF1β.
These compounds were tested to determine whether they might interfere with the ERR-HT interaction.

[2] = test system: hypoxic genes (VEGF, glycolytic enzymes) in SKBR3 cells; experiment: Northern blot of hypoxic gene expression in SKBR3 breast cancer cells; format: cell-based, human; details: DP (100 uM), DES (50 uM)
Source text: For Northern blot analysis, nylon membranes carrying total RNA samples were hybridized with probes made from cDNA fragments encoding for VEGF, PGK1, lactate dehydrogenase A(LDHA), Enolase 1 (Eno1), and Glucose transporter 1 (Glut1). The 18s rRNA and β-actin served as loading controls. […] All human cancer cells were maintained in the following basal media (Invitrogen) supplemented with 10% fetal bovine serum: breast cancer cell line MDA-MB-435 in DMEM/F12, melanoma WM266 cells in McCoy's 5A, breast cancer SKBr3 in DMEM. […] The antibiotic G418 was added in the medium (800 ug/mL) for selection of stable dnERR transfectants. Anaerobic culture was achieved using GasPak Pouch System (BD Biosciences). All procedures followed standard molecular biology techniques. […] The HIF-mediated hypoxic response is defined by transcriptional activation of many hypoxic genes.

HIF1α = experiment: Western blot analysis for HIF1α in SKBR3 cells; format: cell-based, human; details: DP and DES
Source text: HIF1α was detected with anti-HIF1α antibody. The same blot was reprobed with an antitubulin antibody. Tubulin served as a loading control. All procedures followed standard molecular biology techniques.

[3] = test system: MDA-MB-435 breast cancer xenograft; experiment: Tumor xenograft experiment, human MDA-MB-435 breast cancer cells in SCID mice; format: in vivo; details: 750 μg DES daily, oral
Description: Tumor volume was measured weekly.
Tumor xenografts were harvested at time of necropsy (after 3 weeks of treatment) and weighed. […] Scale Bars represent average tumor weight.
MDA-MB-435 cells (5×10^6) were resuspended in a mixture of 100 uL of PBS and Matrigel (BD Biosciences, Bedford, Mass.; 2:1 ratio), and injected subcutaneously into the fourth mammary gland fat pad of 6- to 8-week-old female severe combined immunodeficient (SCID) mice. […] The mice bearing tumor xenografts were randomly divided into two groups. […] Tumors were serially measured weekly with a ruler and the tumor volumes were calculated with the following formula: volume (mm^3)=width^2× length/2. After 3 weeks of treatment, the mice were euthanized. All animal studies were approved by the Institutional Animal Care and Use Committee (IACUC) at the University of Florida.
At the end of treatment, tumors were excised and analyzed.

[4] = test system: hypoxic genes (VEGF, PGK1, LDHA, Eno1, Glut1) in MDA-MB-435 cells; experiment: Northern blot of hypoxic gene expression in MDA-MB-435 breast cancer cells; format: cell-based, human; details: severe hypoxia, DES (50 uM)
Source text: (§1) For Northern blot analysis, nylon membranes carrying total RNA samples were hybridized with probes made from cDNA fragments encoding for VEGF, PGK1, lactate dehydrogenase A(LDHA), Enolase 1 (Eno1), and Glucose transporter 1 (Glut1). The 18s rRNA and β-actin served as loading controls.
All human cancer cells were maintained in the following basal media (Invitrogen) supplemented with 10% fetal bovine serum: breast cancer cell line MDA-MB-435 in DMEM/F12, melanoma WM266 cells in McCoy's 5A, breast cancer SKBr3 in DMEM. […] The antibiotic G418 was added in the medium (800 ug/mL) for selection of stable dnERR transfectants. Anaerobic culture was achieved using GasPak Pouch System (BD Biosciences).
All procedures followed standard molecular biology techniques. […] HIFα was not stable.
The HIF-mediated hypoxic response is defined by transcriptional activation of many hypoxic genes. We asked whether inhibition of ERR was capable of blocking hypoxic-induced transcription of endogenous genes.

pregnant female mice = details: DES 500 μg/mouse; literature (Tremblay et al, 2001); cited from earlier work
[5] = test system: tumor angiogenesis in MDA-MB-435 xenograft; experiment: CD34 immunostaining of tumor xenografts for blood vessel density; format: in vivo, mice; details: 750 μg DES daily, oral, after 3 weeks of treatment
Description: Tumor transplants were processed and subjected to CD34 immunostaining for blood vessels (brown staining). […] Scale bars, 65 μm. […] Microvessel density was determined by counting the number of CD34 positive blood vessels from four randomly chosen visual fields from each group of tumors. The average number in the fields was taken as the mean of vessel density of the group. Tumors were dissected at time of necropsy, weighed, and fixed in 4% paraformaldehyde in PBS overnight. Samples were dehydrated in 70% ethanol, paraffin embedded, and sectioned ([…]). Deparaffinized sections were stained for CD34 to assess blood vessel density. Briefly, samples were microwaved in sodium citrate (pH 6) for 20 min. for antigen retrieval, and treated with 3% H2O2 at room temperature for 20 min. to quench endogenous peroxidase activity. Sections were then blocked in 1.5% rabbit serum and incubated with rat anti-mouse CD34 antibody (1:100 dilution, clone MEC14.7, BioLegend), followed by biotinylated rabbit anti-rat IgG (1:200 dilution; Vector Laboratories). Detection was done with avidin-biotin-HRP complex (Vector laboratories) and di-aminobenzidin as chromogen. […] As angiogenesis is a key part of hypoxic response and is required to support tumor growth beyond a certain threshold size, we assessed tumor vascularization by performing immunohistochemical staining using anti-CD34 antibody. […]

[6] = test system: hypoxic genes in A549 lung cancer cells; experiment: Hypoxic gene expression in A549 lung cancer cells; format: cell-based, human; details: A549 lung cancer cells treated with DP and RES
Source text: as §1

ERRγ-HIF association, sequence (P62508 whole entry): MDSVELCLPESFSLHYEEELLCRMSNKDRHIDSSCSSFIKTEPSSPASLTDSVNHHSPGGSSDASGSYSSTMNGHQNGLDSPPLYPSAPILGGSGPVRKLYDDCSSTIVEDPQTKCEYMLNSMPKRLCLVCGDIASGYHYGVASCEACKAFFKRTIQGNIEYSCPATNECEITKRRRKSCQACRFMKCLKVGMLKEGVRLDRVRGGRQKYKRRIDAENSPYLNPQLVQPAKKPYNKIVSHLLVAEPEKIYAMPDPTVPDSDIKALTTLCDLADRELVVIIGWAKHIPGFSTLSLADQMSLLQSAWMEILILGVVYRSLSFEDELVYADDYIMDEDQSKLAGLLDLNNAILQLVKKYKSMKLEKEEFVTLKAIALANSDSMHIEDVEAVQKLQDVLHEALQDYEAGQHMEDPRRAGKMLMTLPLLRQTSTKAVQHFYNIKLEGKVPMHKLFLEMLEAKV
ERRγ-HIF association, sequence (Q16665 whole entry partner): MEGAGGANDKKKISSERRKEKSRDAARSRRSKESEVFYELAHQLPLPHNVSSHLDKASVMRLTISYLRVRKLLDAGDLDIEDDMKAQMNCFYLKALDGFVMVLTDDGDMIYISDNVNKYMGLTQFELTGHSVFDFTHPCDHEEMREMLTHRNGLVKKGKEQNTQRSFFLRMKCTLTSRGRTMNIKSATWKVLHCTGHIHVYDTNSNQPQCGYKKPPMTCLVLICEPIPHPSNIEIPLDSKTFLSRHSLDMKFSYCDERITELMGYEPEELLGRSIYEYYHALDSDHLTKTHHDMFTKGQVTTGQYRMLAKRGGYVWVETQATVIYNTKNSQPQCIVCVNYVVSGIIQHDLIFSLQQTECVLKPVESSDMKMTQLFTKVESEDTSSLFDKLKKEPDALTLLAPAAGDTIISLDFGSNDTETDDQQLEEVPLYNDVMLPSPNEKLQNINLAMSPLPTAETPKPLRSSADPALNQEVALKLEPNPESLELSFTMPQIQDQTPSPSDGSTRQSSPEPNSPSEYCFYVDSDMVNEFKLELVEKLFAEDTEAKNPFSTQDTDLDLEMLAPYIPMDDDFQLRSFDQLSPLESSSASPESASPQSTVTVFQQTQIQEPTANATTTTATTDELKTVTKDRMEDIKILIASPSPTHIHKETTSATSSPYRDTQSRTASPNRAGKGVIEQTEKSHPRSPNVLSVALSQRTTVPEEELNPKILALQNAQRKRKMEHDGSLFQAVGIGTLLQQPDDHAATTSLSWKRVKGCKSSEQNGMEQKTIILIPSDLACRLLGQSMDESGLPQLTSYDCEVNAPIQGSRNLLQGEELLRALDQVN
ERRγ-HIF association, sequence (P27540 whole entry partner): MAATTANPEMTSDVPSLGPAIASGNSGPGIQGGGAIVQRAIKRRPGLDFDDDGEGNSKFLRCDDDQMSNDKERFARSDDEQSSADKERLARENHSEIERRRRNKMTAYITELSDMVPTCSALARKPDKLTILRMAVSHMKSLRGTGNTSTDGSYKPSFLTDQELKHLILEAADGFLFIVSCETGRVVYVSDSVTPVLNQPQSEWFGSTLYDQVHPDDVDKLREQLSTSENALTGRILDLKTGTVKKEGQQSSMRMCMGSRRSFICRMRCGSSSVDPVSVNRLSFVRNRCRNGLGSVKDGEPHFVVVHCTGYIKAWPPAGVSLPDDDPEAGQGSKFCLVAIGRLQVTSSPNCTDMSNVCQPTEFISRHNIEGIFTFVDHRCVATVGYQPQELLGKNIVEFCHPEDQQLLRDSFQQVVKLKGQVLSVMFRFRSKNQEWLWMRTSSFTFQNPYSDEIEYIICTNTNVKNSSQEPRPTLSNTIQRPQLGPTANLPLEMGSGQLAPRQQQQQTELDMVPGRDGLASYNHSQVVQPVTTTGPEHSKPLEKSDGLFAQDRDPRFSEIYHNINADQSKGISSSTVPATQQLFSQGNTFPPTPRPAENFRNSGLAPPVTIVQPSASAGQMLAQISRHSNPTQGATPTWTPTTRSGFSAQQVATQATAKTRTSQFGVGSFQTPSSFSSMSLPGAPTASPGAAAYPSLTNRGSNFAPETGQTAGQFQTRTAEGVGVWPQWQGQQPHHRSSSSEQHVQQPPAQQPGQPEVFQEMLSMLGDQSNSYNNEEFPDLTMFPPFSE

4-hydroxytamoxifen [4HT]
activity on ERRs / ERR-coactivator interaction (ERRs (ERRα, ERRβ, ERRγ)): selectively inhibits ERRγ
activation of the HIF-dependent reporter by DP-induced HIF stabilization [1]: Lack of effects
effect on ERRγ-HIF association (ERRγ-HIF association): resistant; also recorded: insensitive

CC/C(=C(/CC)c1ccc(O)cc1)c1ccc(O)cc1 [DES, diethylstilbestrol]
transcriptional induction of HIF target genes [2]: largely abolished
HIF1α protein stabilization by DP (HIF1α): stabilized normally
tumor volumes and growth rate versus vehicle-treated control ([3]; 3 weeks, SCID mice): dramatic reduction
tumor xenograft growth upon treatment ([3]; SCID mice): essentially stopped growing
tumor weight at end of treatment versus vehicle-treated mice ([3]; after 3 weeks of treatment): about 3 times lighter
activity on ERRs / ERR-coactivator interaction (ERRs (ERRα, ERRβ, ERRγ)): antagonist of all three ERRs
transcriptional induction of HIF target genes [4]: largely abolished
activation of the HIF-dependent reporter by DP-induced HIF stabilization [1]: severely impaired; also recorded: attenuates HIF activity
effect in pregnant female mice (pregnant female mice): placental defects
micro vascular density in tumors (CD34 positive blood vessels) [5]: clear reduction; also recorded: few blood vessels; also recorded: reduced

Oc1ccc(C=Cc2cc(O)cc(O)c2)cc1 [resveratrol]
activity on ERRs / ERR-coactivator interaction (ERRs (ERRα, ERRβ, ERRγ)): capable of dissociating coactivator complexes from all three ERRs, albeit at higher concentrations than DES
hypoxia-induced gene transcription [6]: manifested inhibitory activities
hypoxia-induced gene transcription ([6]; listed as Resveratrol): reduced hypoxic gene expression

— US20100210735A1, “Modulating the Activity of Nuclear Receptors in Order to Treat Hypoxia-Related Disorders” (UNIVERSITY OF FLORIDA RESEARCH FOUNDATION, INC., priority 2007, published 2010)
